# From patent publication US20250346883A1, “DENSITY GRADIENT CHEMOSTAT FOR ADAPTED LABORATORY EVOLUTION” (priority 2022, published 2025)
# Where “and” joins values, the source holds several entries; their conditions need not be identical. Equal entries are not always repeated.
# Legend:
# [1] = test system: Escherichia coli MG1655 ancestor and MICALE-grown samples; test: Antibiotic stress adaptation analysis (OD600 growth in increasing ciprofloxacin); type: cell-based; conditions: for relative cell proliferation / relative exponential growth rate: 10×MIC
# Experimental: (§1) The adaptation analysis (step 205) is a qualitative test to compare the ability to grow in the presence of the stressor between the ancestor and MICALE-grown samples. Turbid broth cultures from isolated colonies were diluted 1:100 in sterile broth with increasing amounts of stressor. These dilutions were vortexed before pipetting 0.2 mL in triplicate onto a 96-well plate. The microplate reader then measured OD600 every 15 minutes over the span of four days while incubating the plate at 37° C. with the plate lid on. […] Referring to FIG. 3B, for each OD600 curve, the maximum rate of growth over a span of 75 minutes is designated the exponential growth rate, u, and the subtracted difference between the maximum and minimum OD600 measurements, AOD, is designated the cell proliferation. The high salinity and chaotropic stress adaptation analyses were completed once whereas the antibiotic analysis was repeated for two total trials. Growth metrics were extrapolated from the growth curves (described below) for numerical comparisons between samples and to fit a logistic dose-response curve of each sample's response in a stressor. For each sample, a logistic curve was fit to the triplicate relative exponential growth rate or relative cell proliferation values across all media types (FIG. 3C). This curve represents a sample's relative response to increasing doses of a stressor, known as a dose-response curve. The value for ED50 is the effective dose of the stressor at which a 50% decrease in the maximal response (100%) is observed.
# The samples chosen for the antibiotic-stress adaptation analysis were from the end of the antibiotic stress MICALE run, sampled on the 14th day (Table 7, below). Samples were cultured grown in media with no antibiotic, 0.6 μg/mL ciprofloxacin (10×MIC,) and 15 μg/mL ciprofloxacin ([…]) were transferred into 5 mL of LB broth with the same amount of antibiotic. The only exception is the BL sample was grown in 0.6 μg/mL ciprofloxacin then transferred to LB broth with 15 μg/mL ciprofloxacin. Once turbid, the broth cultures were diluted into media with no antibiotic, 0.6 μg/mL, 6 μg/mL, and 60 μg/mL ciprofloxacin then pipetted onto a 96-well plate and placed in the microplate reader to start the analysis. A portion of the broth cultures used for the analysis were frozen in glycerol. For a repeat trial of the adaptation analysis, these frozen stocks were revived in broth media matching the level of antibiotic in which they had originally been cultured.
# (§2) To statistically compare growth between samples, two parameters were extracted from the OD600 curves resulting from the adaptation analysis: relative exponential growth rate and relative cell proliferation (FIG. 3B). To find the exponential growth rate, μ, growth curves are normally fit to a standard sigmoidal function, such as the Gompertz model. However, these OD600 curves were too irregular to be well fit with a standard function. Instead, a rolling regression was fitted onto natural log transformed OD600 curves to produce linear regression lines between six measurements at a time (75 total minutes), shifting by 1 measurement, over the curve. The exponential growth rate from the maximum slope obtained by the rolling regression is 0.44 hr^−1. The darker lines on the upper right section of the curve represent where the maximum slope occurs. (FIG. 4).
# (§3) The exponential growth rate was determined to be the maximum slope of any of the regression lines, denoted by μstress for growth curves in media with stressor and μblank for that in blank LB media [Equation 1]. Any slope maxima that appeared to be due from anomalies in the data, such as a quick jump in OD600 after biofilm formation, were filtered out. This ensured that the maximum slope occurred during the time that visually represented exponential growth (near the start of the curve). […]
# Escherichia coli = conditions: cited from earlier work
# [2] = test system: Escherichia coli MG1655 ancestor and MICALE-grown samples; test: High salinity adaptation analysis (OD600 growth in increasing NaCl); type: cell-based
# Experimental: as §1
# The samples chosen from the high salinity run were frozen stocks of the PL, SL, and BL samples that had been taken at the end of the run (two weeks) and one SL sample from the first 25 hours (Table 2, below). The samples used in the adaptation analysis had been in media with a NaCl concentration of 60 ppt, and the ancestor was cultured on blank LB media. The samples were diluted into LB media with 5, 45, 60, 75, and 90 ppt NaCl then plated on the 96-well plate.
# as §2
# as §3, with “curve). The triplicate μblank calculations were averaged to obtain the values representing that sample's growth in media without stress, μcontrol [Equation 2]. The percent relative exponential growth rate was obtained by dividing each μ by the μcontrol, then multiplying by 100 [Equation 3]. Finally, the three relative exponential growth rate values for each sample and media type were averaged [Equation 4].” for “curve).”
# [3] = test system: Escherichia coli MG1655 ancestor and MICALE-grown samples; test: Chaotropic stress adaptation analysis (OD600 growth in increasing MgCl2); type: cell-based
# Experimental: as §1
# For the chaotropic stress run, samples from both two weeks and four weeks into the run were selected for analysis (Table 5, below). The samples, including the ancestor, were cultured in media with 0, 200, and 250 mM MgCl2. The IL samples were not plated on 200 mM MgCl2 plates due to limited resources. The ancestor was grown on plates with the same MgCl2 concentration as the samples to see if the culturing process was causing genetic change significant enough to affect the growth phenotypes observed during the adaptation analysis. Cultures were diluted into media with 0, 200, 250 and 300 mM MgCl2 then pipetted onto the 96-well-plate to start the four-day analysis.
# as §2
# as §3, with “curve). The triplicate μblank calculations were averaged to obtain the values representing that sample's growth in media without stress, μcontrol [Equation 2]. The percent relative exponential growth rate was obtained by dividing each μ by the μcontrol, then multiplying by 100 [Equation 3]. Finally, the three relative exponential growth rate values for each sample and media type were averaged [Equation 4].” for “curve).”
# [4] = sample PL-000-Col1, 200 mM MgCl2
smiles,measurement,setting,value
O=C(O)c1cn(C2CC2)c2cc(N3CCNCC3)c(F)cc2c1=O [ciprofloxacin],growth in media with ciprofloxacin,"[1]; Ancestor, any media with ciprofloxacin (10-1000×MIC), both trials",did not show signs of growth
same,concentration at which cell proliferation value of less than 5% was reached (no growth),"[1]; Trial 1, Ancestor",10 ×MIC
same,concentration at which cell proliferation value of less than 5% was reached (no growth),"[1]; Trial 1, sample BL-15",1000 ×MIC
same,concentration at which cell proliferation value of less than 5% was reached (no growth),"[1]; Trial 1, sample IL-00",100 ×MIC
same,average cell proliferation,"[1]; Trial 1, sample IL-00, 100×MIC",0.6%
same,average cell proliferation,"[1]; Trial 1, sample IL-00, 1000×MIC (likely evaporation, not growth)",5.3%
same,concentration at which cell proliferation value of less than 5% was reached (no growth),"[1]; Trial 1, sample IL-15-Col1",1000 ×MIC
same,relative growth rate,"[1]; Trial 1, sample IL-15-Col1, 100×MIC",54.4%
same,concentration at which cell proliferation value of less than 5% was reached (no growth),"[1]; Trial 1, sample IL-15-Col2",1000 ×MIC
same,relative cell proliferation,"[1]; Trial 1, sample IL-15-Col2",61.5%
same,relative exponential growth rate,"[1]; Trial 1, sample IL-15-Col2",107.5%
same,concentration at which cell proliferation value of less than 5% was reached (no growth),"[1]; Trial 1, sample PL-00",10 ×MIC
same,concentration at which cell proliferation value of less than 5% was reached (no growth),"[1]; Trial 1, sample PL-0.6",100 ×MIC
same,cell proliferation values,"[1]; Trial 1, sample SL-15, all concentrations (10-1000×MIC)",over 5%
same,concentration at which average cell proliferation lower than 5% was reached,"[1]; Trial 2, Anc",10 ×MIC
same,relative exponential growth rate,"[1]; Trial 2, sample BL-15",97.2%
same,relative growth rate,"[1]; Trial 2, sample BL-15, 100×MIC",66.6%
same,concentration at which average cell proliferation lower than 5% was reached,"[1]; Trial 2, sample IL-00",100 ×MIC
same,relative exponential growth rate,"[1]; Trial 2, sample IL-15-Col1",90.5%
same,concentration at which average cell proliferation lower than 5% was reached,"[1]; Trial 2, sample IL-15-Col2",1000 ×MIC
same,relative cell proliferation,"[1]; Trial 2, sample IL-15-Col2",90.9%
same,relative exponential growth rate,"[1]; Trial 2, sample IL-15-Col2",101.6%
same,concentration at which average cell proliferation lower than 5% was reached,"[1]; Trial 2, sample PL-00",100 ×MIC
same,concentration at which average cell proliferation lower than 5% was reached,"[1]; Trial 2, sample PL-0.6",100 ×MIC
same,relative exponential growth rate,"[1]; Trial 2, sample SL-15",90.6%
same,average cell proliferation,"[1]; Trial 2, samples IL-15-Col1, SL-15 and BL-15, 1000×MIC (growth in all levels tested)",above 5%
same,growth (OD600 curves) in ciprofloxacin,"[1]; samples IL-15-Col1, IL-15-Col2, SL-15 and BL-15, both trials",had OD600 curves in ciprofloxacin up to 100×MIC
same,"growth in 100 or 1,000×MIC","[1]; samples PL-00, PL-0.6 and IL-00, overall, both trials",could not grow
same,"MIC, literature's value",Escherichia coli,0.05 µg/mL
"[Cl-].[Na+] [NaCl, sodium chloride]",decrease of exponential growth rate from 60 to 75 ppt NaCl,[2]; sample Ancestor,22.9%
same,relative growth rate,"[2]; sample Ancestor, 75 ppt NaCl",15.5%
same,average cell proliferation,"[2]; sample Ancestor, 90 ppt NaCl (no growth)",less than 5%
same,increase of exponential growth rate from 60 to 75 ppt NaCl,[2]; sample BL,7.7%
same,relative growth rate,"[2]; sample BL, 60 ppt NaCl",32.5%
same,relative growth rate,"[2]; sample BL, 75 ppt NaCl",40.2%
same,relative growth rate,"[2]; sample BL, 90 ppt NaCl",42.8%
same,decrease of exponential growth rate from 60 to 75 ppt NaCl,[2]; sample PL,35.0%
same,relative growth rate,"[2]; sample PL, 75 ppt NaCl",18.3%
same,relative growth rate,"[2]; sample PL, 90 ppt NaCl",25.9%
same,decrease of exponential growth rate from 60 to 75 ppt NaCl,[2]; sample SLearly,28.9%
same,average cell proliferation,"[2]; sample SLearly, 75 and 90 ppt NaCl (no growth)",less than 5%
same,relative growth rate,"[2]; sample SLearly, 75 ppt NaCl",3.1%
same,decrease of exponential growth rate from 60 to 75 ppt NaCl,[2]; sample SLfinal,7.8%
same,relative growth rate,"[2]; sample SLfinal, 75 ppt NaCl",19.7%
same,relative growth rate,"[2]; sample SLfinal, 90 ppt NaCl",27.0%
same,average cell proliferation,"[2]; three samples taken at the end of the run (PL, SLfinal, BL), every level of salinity (5-90 ppt NaCl)",over 5%
"[Cl-].[Cl-].[Mg+2] [MgCl2, magnesium chloride]",growth in 300 mM MgCl2,"[3]; all samples incl. ancestor, 300 mM MgCl2",No samples showed signs of growth
same,average exponential growth rate (relative),"[3]; sample Anc-000, 200 mM MgCl2",41.7%
same,relative cell proliferation,"[3]; sample Anc-000, 200 mM MgCl2",74.0%
same,growth in 250 mM MgCl2,"[3]; sample Anc-000, 250 mM MgCl2",showed signs of growth
same,average exponential growth rate (relative),"[3]; sample Anc-200, 200 mM MgCl2",32.0%
same,relative cell proliferation,"[3]; sample Anc-200, 200 mM MgCl2",94.0%
same,average exponential growth rate (relative),"[3]; sample IL-000, 200 mM MgCl2",33.5%
same,relative cell proliferation,"[3]; sample IL-000, 200 mM MgCl2",86.5%
same,maximum OD600,"[3]; sample PL-000-Col1, one triplicate well, 200 mM MgCl2",1.479
same,average exponential growth rate (relative),[3]; [4],54.0%
same,relative cell proliferation,[3]; [4],130% and 130.3%
same,growth in 250 mM MgCl2,"[3]; sample PL-000-Col1, 250 mM MgCl2 (one well)",showed signs of growth
same,relative cell proliferation,"[3]; sample PL-000-Col2, 200 mM MgCl2 (considered as no growth)",less than 5%
same,growth in media with MgCl2,"[3]; sample PL-000-Col2, any media with MgCl2",could not grow
same,average exponential growth rate (relative),"[3]; sample PL-200, 200 mM MgCl2",26.5%
same,relative cell proliferation,"[3]; sample PL-200, 200 mM MgCl2",129.3%
same,average exponential growth rate (relative),"[3]; sample SL-W2, 200 mM MgCl2",22.2%
same,highest average OD600,"[3]; sample SL-W2, 200 mM MgCl2",1.399
same,relative cell proliferation,"[3]; sample SL-W2, 200 mM MgCl2",140.8%
same,average exponential growth rate (relative),"[3]; sample SL-W4, 200 mM MgCl2",42.3%
same,relative cell proliferation,"[3]; sample SL-W4, 200 mM MgCl2",102.2%
